Measured values taken from publication PMC3430861, “The pharmacological profile of ELIC, a prokaryotic GABA-gated receptor” (Neuropharmacology, 2012).
Like-named read-outs stand apart in the source and are kept apart here.

What was measured:
ELIC [1] = target: T1, ELIC (Dickeya chrysanthemi, UniProt P0C7B7, INS163G); assay: cell-based; format: cell-based, Erwinia chrysanthemi
T1 construct: expressed in transfected cells; host or cells: Xenopus laevis oocytes injected with cRNA
Procedure: Xenopus laevis oocyte-positive females were purchased from NASCO (Fort Atkinson, Wisconsin, USA) and maintained according to standard methods.
(§1) The ELIC sequence (Genbank accession number POC7B7) was purchased from Genscript as a synthetic gene with optimized codon usage for expression in Escherichia coli. […] Stage V and VI oocytes were injected with 20 ng cRNA, and currents recorded 1–3 days post-injection.

ELIC [2] = target: T2, ELIC (Dickeya chrysanthemi, UniProt P0C7B7); assay: cell-based; format: cell-based, Erwinia chrysanthemi
T2 sequence (P0C7B7 8-321): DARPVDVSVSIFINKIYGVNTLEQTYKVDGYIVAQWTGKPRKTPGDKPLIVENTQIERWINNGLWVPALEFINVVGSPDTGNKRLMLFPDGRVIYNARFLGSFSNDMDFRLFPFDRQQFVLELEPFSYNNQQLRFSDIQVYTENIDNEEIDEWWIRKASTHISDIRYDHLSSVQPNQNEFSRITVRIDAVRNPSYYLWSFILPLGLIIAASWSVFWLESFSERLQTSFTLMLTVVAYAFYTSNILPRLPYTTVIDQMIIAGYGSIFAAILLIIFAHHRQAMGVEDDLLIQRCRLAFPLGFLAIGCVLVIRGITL
Procedure: Xenopus laevis oocyte-positive females were purchased from NASCO (Fort Atkinson, Wisconsin, USA) and maintained according to standard methods. Harvested stage V–VI Xenopus oocytes were washed in four changes of ND96 (96 mM NaCl, 2 mM KCl, 1 mM MgCl2, 5 mM HEPES, pH 7.5), de-folliculated in 1.5 mg ml^−1 collagenase Type 1A for approximately 2 h, washed again in four changes of ND96 and stored in ND96 containing 2.5 mM sodium pyruvate, […], 0.7 mM theophylline.
as §1

[3] = 10 mM, read-out: pEC50 (EC50): agonist effect at the concentration shown (converted)
[4] = 1 mM, read-out: pEC50 (EC50): agonist effect at the concentration shown (converted)

For `NCCCP(=O)(O)O` [3-aminophosphonic acid], the “effect on ELIC (agonist test)” value (ELIC [1]; 100 mM) was “no effect” and the EC50 (ELIC [1]; 100 mM, read-out: pEC50 (EC50): agonist effect at the concentration shown (converted)) was greater than 10000 µM.

In the case of `O=C(O)Cc1c[nH]c2ccccc12` [3-indole acetic acid], the “effect on ELIC (agonist test)” value (ELIC [1]; 10 mM) is reported as “no effect” and the EC50 (ELIC [1]; [3]) is reported as greater than 10000 µM.

`NCCc1c[nH]c2ccc(O)cc12` [5-HT] was tested, and the EC50 (ELIC [1]; [4]) was greater than 10000 µM and the “effect on ELIC (agonist test)” value (ELIC [1]; 10 mM) was “no ELIC responses”.

For `Oc1ccc2[nH]ccc2c1` [5-hydroxyindole], the “inhibition of ELIC (yes/no)” value (ELIC [2]) was “inhibiting neither”.

For `CC(=O)OCC[N+](C)(C)C` [ACh], the EC50 (ELIC [1]; [4]) was greater than 10000 µM and the “effect on ELIC (agonist test)” value (ELIC [1]; 10 mM) was “no ELIC responses”.

`C[C@H](N)C(=O)O` [Alanine] was tested, and the “effect on ELIC (agonist test)” value (ELIC [1]; 1 mM) was “no effect”.

In the case of `N=C(N)NCCC[C@H](N)C(=O)O` [Arginine], the “effect on ELIC (agonist test)” value (ELIC [1]; 1 mM) is reported as “no effect”.

`NC(=O)C[C@H](N)C(=O)O` [Asparagine] was tested, and the “effect on ELIC (agonist test)” value (ELIC [1]; 1 mM) was “no effect”.

In the case of `N[C@@H](CC(=O)O)C(=O)O` [Aspartate], the “effect on ELIC (agonist test)” value (ELIC [1]; 1 mM) is reported as “no effect”.

`CN1CCc2cc3c(cc2[C@H]1[C@@H]1OC(=O)c2c1ccc1c2OCO1)OCO3` [Bicuculline] was tested, and the “effect when co-applied in the presence of GABA” value (ELIC [2]; 100 μM) was “no effect” and the “pIC50: no inhibition” value (ELIC [2]; wild type ELIC, at the GABA EC50 (1.6 mM)) was “NI* (no inhibition at 100 μM)”.

For `CC(C)(C)[C@]1(O)CC2OC(=O)CC23C(=O)OC2OC(=O)[C@H](O)C231` (stereo partly drawn) [Bilobalide], the nH (ELIC [2]; Hill coefficient of inhibition curve) was 1.3 ± 0.2, the IC50 (ELIC [2]; IC50, wild type ELIC, at the GABA EC50 (1.6 mM)) was 330 µM and the IC50 (ELIC [2]; pIC50 (Mean ± SEM), wild type ELIC, at the GABA EC50 (1.6 mM)) was 331 µM.

`N[C@@H](CS)C(=O)O` [Cysteine] was tested, and the “effect on ELIC (agonist test)” value (ELIC [1]; 1 mM) was “no effect”.

For `C[C@@H]1C[C@H]2[C@@H]3CCC4=CC(=O)C=C[C@]4(C)[C@@]3(F)[C@@H](O)C[C@]2(C)[C@@]1(O)C(=O)CO` [Dexamethasone], the “inhibition of ELIC (yes/no)” value (ELIC [2]; comparison ELIC vs GLIC) was “inhibiting neither”.

`ClC1=C(Cl)[C@]2(Cl)[C@@H]3[C@@H]4C[C@@H]([C@H]5O[C@@H]45)[C@@H]3[C@@]1(Cl)C2(Cl)Cl` [Dieldrin] showed a nH (ELIC [2]) of 1.1 ± 0.1, an IC50 (ELIC [2]; IC50) of 66 µM and an IC50 (ELIC [2]; pIC50 (Mean ± SEM)) of 66.1 µM.

With `NCCCC(=O)O` [GABA] the “Hill Slope” value (ELIC [1]; wild type ELIC, agonist concentration-response) was 2.1 ± 0.6, the pEC50 (ELIC [1]; wild type ELIC, oocytes clamped at −60 mV) was 2.78 ± 0.04 and the EC50 (ELIC [1]; wild type ELIC, oocytes clamped at −60 mV, read-out: EC50 (converted)) was 1600 µM.

With `COc1ccc(-c2ccc(=N)n(CCCC(=O)O)n2)cc1` [Gabazine (SR-95531), Gabazine] the “effect when co-applied in the presence of GABA” value (ELIC [2]) was “no effect”.

`NCC(=O)O` [Glycine] was tested, and the EC50 (ELIC [1]; [4]) was greater than 10000 µM, the “effect on ELIC (agonist test)” value (ELIC [1]; 10 mM) was “no ELIC responses” and the EC50 (ELIC [1]; [3]) was greater than 10000 µM.

In the case of `O=[N+]([O-])NC1=NCCN1Cc1ccc(Cl)nc1` [Imidaclopride], the “inhibition of ELIC (yes/no)” value (ELIC [2]) is reported as “inhibiting neither”.

For `CC[C@H](C)[C@H](N)C(=O)O` [Isoleucine], the “effect on ELIC (agonist test)” value (ELIC [1]; 1 mM) was “no effect”.

In the case of `N[C@@H](CCC(=O)O)C(=O)O` [L-glutamate], the “effect on ELIC (agonist test)” value (ELIC [1]; 1 mM) is reported as “no effect” and the “effect on ELIC (agonist test)” value (ELIC [1]; 10 mM) is reported as “did not activate ELIC”.

`CC(C)C[C@H](N)C(=O)O` [Leucine] was tested, and the “effect on ELIC (agonist test)” value (ELIC [1]; 1 mM) was “no effect”.

For `NCCCC[C@H](N)C(=O)O` [Lysine], the “effect on ELIC (agonist test)” value (ELIC [1]; 1 mM) was “no effect”.

For `CSCC[C@H](N)C(=O)O` [Methionine], the “effect on ELIC (agonist test)” value (ELIC [1]; 1 mM) was “no effect”.

For `CC(=O)O[C@H]1C[C@@H]2CC[C@@H]3[C@H](CC[C@@]4(C)[C@H]3C[C@H]([N+]3(C)CCCCC3)[C@@H]4OC(C)=O)[C@@]2(C)C[C@@H]1[N+]1(C)CCCCC1` [Pancuronium], the “pIC50: no inhibition” value (ELIC [2]) was “NI (key: NI: no inhibition at 10 mM; NI*: no inhibition at 100 μM)”.

`CCCC(C(=O)OCCN(CC)CC)(c1ccccc1)c1ccccc1` [Proadifen] was tested, and the nH (ELIC [2]) was 2.9 ± 0.6, the “pIC50 (Mean ± SEM)” value (ELIC [2]) was 5.09 ± 0.04 and the IC50 (ELIC [2]; IC50) was less than 20 µM. The IC50 (ELIC [2]; read-out: IC50) was 8.1 µM.

In the case of `CC(=O)[C@H]1CC[C@H]2[C@@H]3CCC4=CC(=O)CC[C@]4(C)[C@H]3CC[C@]12C` [Progesterone], the nH (ELIC [2]) is reported as 1.8 ± 0.58, the IC50 (ELIC [2]; IC50) is reported as 150 µM and the IC50 (ELIC [2]; pIC50 (Mean ± SEM)) is reported as 151 µM.

In the case of `Cc1cccc(C)c1N=C([O-])C[N+](C)(C)C.Cl` [QX-222], the “inhibition of ELIC (yes/no)” value (ELIC [2]) is reported as “inhibiting neither” and the “pIC50: no inhibition” value (ELIC [2]) is reported as “NI (key: NI: no inhibition at 10 mM; NI*: no inhibition at 100 μM)”.

Compound `CC[N+](CC)(CC)CC` [tetraethylammonium] has an IC50 (ELIC [2]; read-out: IC50) of roughly 20000 µM.

`C[N+](C)(C)C` [tetramethylammonium] showed an IC50 (ELIC [2]; read-out: IC50) of roughly 20000 µM.

Ivermectin was tested, and the “inhibition of ELIC (yes/no)” value (ELIC [2]) was “inhibiting neither” and the “pIC50: no inhibition” value (ELIC [2]) was “NI (key: NI: no inhibition at 10 mM; NI*: no inhibition at 100 μM)”.
